Assay results reported in BindingDB's records for doi:10.1021/acs.jmedchem.3c00363 (University of Regensburg, 2023).
Starred links: 1 amine or outer side, 2 acyl side, 3 side chain; linkers in the order of their positions; H or OH if unused. Non-standard residues stand in square brackets, D forms with d. Residues, ends and D or L forms follow the SMILES beside them. X1 = O=C([C@@H]1C[C@@H](c2ccccc2)[C@@H]1CN[*:1])[*:2]; X2 = O=C([C@H]1C[C@H](c2ccccc2)[C@H]1CN[*:1])[*:2]

molecular target: Neuropeptide Y receptor type 1 (Homo sapiens) (UniProt P25929); assay: Displacement of [3H]UR-MK299 from human Y1 receptor expressed in human SK-N-MC cells measured after 90 mins by MicroBeta plate counter based competition binding assay
Sequence (P25929 whole entry, looked up): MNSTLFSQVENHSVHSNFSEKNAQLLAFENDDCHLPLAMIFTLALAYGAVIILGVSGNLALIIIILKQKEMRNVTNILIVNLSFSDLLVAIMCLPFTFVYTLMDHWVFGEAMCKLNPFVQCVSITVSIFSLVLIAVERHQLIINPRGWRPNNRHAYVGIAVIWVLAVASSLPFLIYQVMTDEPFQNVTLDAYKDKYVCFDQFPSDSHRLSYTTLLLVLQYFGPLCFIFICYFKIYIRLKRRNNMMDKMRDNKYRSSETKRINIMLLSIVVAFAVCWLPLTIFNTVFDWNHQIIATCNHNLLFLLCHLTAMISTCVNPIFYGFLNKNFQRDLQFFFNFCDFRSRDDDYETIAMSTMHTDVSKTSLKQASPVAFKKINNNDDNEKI

| Compound | Ki [µM] |
| --- | --- |
| CC(=O)N[C@@H](CCCNC(=N)N)C(=O)NC[C@@H]1[C@H](C(=O)N[C@@H](CCCNC(=N)N)C(=O)N[C@@H](CC(C)C)C(=O)N[C@@H](CCCNC(=N)N)C(=O)N[C@@H](Cc2ccc(O)cc2)C(N)=O)C[C@H]1c1ccccc1 (Ac-R[X1]RLRY-NH2) | 0.23 |
| CC(=O)N[C@@H](CCCNC(=N)N)C(=O)NC[C@H]1[C@@H](C(=O)N[C@@H](CCCNC(=N)N)C(=O)N[C@@H](CC(C)C)C(=O)N[C@@H](CCCNC(=N)N)C(=O)N[C@@H](Cc2ccc(O)cc2)C(N)=O)C[C@@H]1c1ccccc1 (Ac-R[X2]RLRY-NH2) | > 3 |
| CC(=O)N[C@@H](CCCNC(=N)N)C(=O)NC[C@H]1[C@@H](C(=O)N[C@@H](CCCNC(=N)N)C(=O)NC[C@H]2[C@@H](C(=O)N[C@@H](CCCNC(=N)N)C(=O)N[C@@H](Cc3ccc(O)cc3)C(N)=O)C[C@@H]2c2ccccc2)C[C@@H]1c1ccccc1 (Ac-R[X2]R[X2]RY-NH2) | > 1.05 |

Other lines, results leading:

| Ki [µM] | Compound |
| --- | --- |
| 1.18 | CC(=O)N[C@@H](CCCNC(=N)N)C(=O)N[C@@H](Cc1ccc(O)cc1)C(=O)N[C@@H](CCCNC(=N)N)C(=O)N[C@@H](CC(C)C)C(=O)N[C@@H](CCCNC(=N)N)C(=O)N[C@@H](Cc1ccc(O)cc1)C(N)=O |
| > 1 | CC(=O)N[C@@H](CCCNC(=N)N)C(=O)NC[C@@H]1[C@H](C(=O)N[C@@H](CCCNC(=N)N)C(=O)NC[C@@H]2[C@H](C(=O)N[C@@H](CCCNC(=N)N)C(=O)N[C@@H](Cc3ccc(O)cc3)C(N)=O)C[C@H]2c2ccccc2)C[C@H]1c1ccccc1 (Ac-R[X1]R[X1]RY-NH2) |
